“Also recorded” adds a separate entry of the source.
Columns and labels:
TLR 7 = target: T1, TLR 7 (Mus musculus, UniProt P58681); experiment: polyU-induced TNFα secretion by RAW264.7 cells (TLR 7 antagonism); assay type: cell-based; settings: for antagonism of TLR 7 activation (TNFα release): 20 μg/mL polyU, 20 μg/mL phospholipid, 4 hours; for TLR7 antagonist activity: reduction in cytokine secretion vs activating TLR ligand alone
T1 construct: endogenous in cells; host or cells: RAW264.7 (ATCC)
T1 sequence (P58681 27-1050): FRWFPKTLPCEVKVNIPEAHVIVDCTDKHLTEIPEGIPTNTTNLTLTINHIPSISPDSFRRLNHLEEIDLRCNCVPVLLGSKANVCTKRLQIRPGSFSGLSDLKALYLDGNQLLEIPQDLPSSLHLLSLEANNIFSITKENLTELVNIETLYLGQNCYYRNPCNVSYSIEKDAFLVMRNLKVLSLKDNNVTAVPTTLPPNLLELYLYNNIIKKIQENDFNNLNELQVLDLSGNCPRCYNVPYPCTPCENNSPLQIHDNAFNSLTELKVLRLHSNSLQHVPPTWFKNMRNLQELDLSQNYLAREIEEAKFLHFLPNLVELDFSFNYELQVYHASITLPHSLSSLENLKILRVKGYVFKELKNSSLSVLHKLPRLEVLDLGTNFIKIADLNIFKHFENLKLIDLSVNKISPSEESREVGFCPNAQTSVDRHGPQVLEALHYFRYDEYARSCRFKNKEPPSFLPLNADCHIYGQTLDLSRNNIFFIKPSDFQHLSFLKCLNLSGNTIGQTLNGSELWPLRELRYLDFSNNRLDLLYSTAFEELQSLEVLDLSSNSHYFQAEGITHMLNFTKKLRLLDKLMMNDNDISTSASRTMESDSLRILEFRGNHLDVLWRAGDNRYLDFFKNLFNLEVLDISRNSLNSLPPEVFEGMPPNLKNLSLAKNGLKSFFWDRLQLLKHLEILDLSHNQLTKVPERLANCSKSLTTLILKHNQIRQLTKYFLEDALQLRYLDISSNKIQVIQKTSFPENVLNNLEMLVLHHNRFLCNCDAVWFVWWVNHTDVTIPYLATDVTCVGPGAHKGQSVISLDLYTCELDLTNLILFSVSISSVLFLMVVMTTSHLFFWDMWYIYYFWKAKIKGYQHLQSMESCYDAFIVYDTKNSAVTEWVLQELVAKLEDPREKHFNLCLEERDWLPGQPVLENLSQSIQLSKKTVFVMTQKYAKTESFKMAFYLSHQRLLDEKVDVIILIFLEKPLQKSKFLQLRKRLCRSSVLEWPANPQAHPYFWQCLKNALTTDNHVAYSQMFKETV
Procedure: The mouse macrophage cell line, RAW264.7, was obtained from ATCC and maintained in DMEM, supplemented with 10% bovine growth serum and 1× penicillin streptomycin. Cells were maintained at 37° C. with 5% carbon dioxide: 95% air atmosphere within the incubator. Experiments were completed in a 96-well plate where cells were seated at a density of 1×10^5 cells per well, 24 prior to stimulation with TLR agonists and antagonists. Lipids were dried under a stream of nitrogen, hydrated with phosphate-buffered saline (PBS) at 37° C. for one hour, followed by water bath sonication to create liposomes. Each condition for cell stimulation and antagonism was prepared in DMEM in a separate tube and consisted of: control, TLR agonist, TLR agonist+lipid, and lipid alone. 100 μL aliquots of medium+agonists+antagonists were added to each well and incubated at 37° C. for 4 hours. Subsequently, the media were collected, diluted and an enzyme-linked immunosorbent assay (ELISA) was performed to quantify TNFα release by cells.
TLR 7 is an intracellular receptor of the endosomal compartment. TLR 7 was the first innate immune receptor reported druggable with small molecules, however no breakthrough treatments have been discovered with TLR 7 agonists/antagonists yet (T. Y.-H. Wu, “Strategies for Designing Synthetic Immune Agonists,” Immunology, 2016). TLR 7 detects single-stranded RNA (ssRNA) within endosomal compartments. Xylitol lipids were assessed for antagonism of TLR 7 activation in the presence of the synthetic ssRNA analog, polyuridylic acid (polyU). The macrophage cell line, RAW264.7, was used to assess antagonist activity of PX analogs in a TLR 7-dependent manner. Cells were stimulated with 20 μg/mL polyU for 4 hours in the absence or presence of 20 μg/mL phospholipid. After a 4-hour stimulation media were collected and TNFα secretion was quantified by ELISA. […] Saturated, ester-linked phospholipids appear to be ineffective at antagonizing TLR 7 activation where as their unsaturated ester-linked and saturated ether-linked counterparts were effective.

RSV = experiment: Quantitative RSV plaque assay in HEp2 cells; assay type: cell-based, human RSV A2 strain; settings: for antiviral activity against RSV by plaque assay: 50 μg/mL lipid, HEp2, 37° C.
Procedure: Viral stocks were propagated in HEp2 cell monolayers using DMEM/Ham's F12 Medium (GIBCO), plus 5% bovine growth serum (Hyclone) with 1× penicillin streptomycin, and virus was purified using methods previously described [M. Numata, H. W. Chu, A. Dakhama, and D. R. Voelker, “Pulmonary surfactant phosphatidylglycerol inhibits respiratory syncytial virus-induced inflammation and infection.,” Proc. Natl. Acad. Sci. U.S.A., vol. 107, no. 1, pp. 320-5, 2010.]. Viral titers and growth were measured by plaque assays [J. L. McKimm-Breschkin, “A simplified plaque assay for respiratory syncytial virus—direct visualization of plaques without immunostaining,” 2004.]. The antiviral activity of xylitol-headgroup lipids was determined by in vitro RSV infection in the presence or absence of lipid and infectious particles were quantified by viral plaque assay. HEp2 cells were plated at a density of 1.8×10^6 per well in a 6 well plate 24 hours prior to infection in order to create a uniform monolayer. Cell monolayers were infected for 2 hours at 37° C. with serial dilutions of RSV alone and RSV in combination with 50 μg/mL of phospholipid. Following the 2-hour period of infection, the inoculum was removed and 3 mL of medium containing 0.3% agarose was added, allowed to solidify and placed in a 37° C. incubator for 6 days. On day 6 the cells were fixed overnight with formalin and then stained with a neutral red stain and viral plaques were quantified visually.
An optimized quantitative plaque assay (described for RSV by J. L. McKimm-Breschkin, “A simplified plaque assay for respiratory syncytial virus-direct visualization of plaques without immunostaining,” 2004) was applied to survey the ability of PX lipids to inhibit RSV infection. The human epithelial cell line, HEp2, was seeded at a density of 1.8×10^6 per well in a 6-well plate 24 hours in advance of infection. Reaction conditions for infection took place in serum-free medium and were combined before addition to cells. A standard dilution of virus alone was prepared and 50 μg/mL phospholipid in combination with RSV was also prepared. Cells were washed with PBS to remove any serum prior to infection and then 500 μL of virus in various combinations with lipids was added to each well and incubated at 37° C. for 2 hours. Plates were rotated every 20 minutes for even distribution of viral infection. After infection, the viral inoculum was removed and medium containing 0.3% agarose was added to each well and allowed to solidify then placed back into the incubator at 37° C. for 6 days. On day 6, cells were fixed overnight then the agarose layer was removed and wells were stained with neutral red and viral plaques counted. POPG is a known inhibitor of RSV infection in vitro and in vivo. […] Ester-linked saturated xylitol lipids composed the moderately effective antivirals. The sole xylitol analog that was determined ineffective was saturated and ether-linked.

SMILES	antagonism of TLR 7 activation (TNFα release) (TLR 7)	reduction of RSV viral infection by a factor of (RSV; 50 μg/ml lipid, 10^4 infectious virus/ml, HEp2)	antiviral activity against RSV by plaque assay (RSV)	TLR7 antagonist activity (TLR 7)
CCCCCCCC/C=C\CCCCCCCC(=O)O[C@H](COC(=O)CCCCCCCCCCCCCCC)COP(=O)(O)OCC(O)CO (stereo partly drawn) [POPG, palmitoyl-oleoyl-phosphatidylglycerol, reference compound]	markedly inhibited	> 10^4	–	–
CCCCCCCCCCCCCC(=O)OC[C@H](COP(=O)(O)OCC(O)C(O)C(O)CO)OC(=O)CCCCCCCCCCCCC (mixture of isomers) [DMPX, sn-1-myristoyl, sn-2-myristoyl sn-3 glycerol phosphoxylitol]	–	–	moderate antiviral activity	–
CCCCCCC=CCCCCCCCC(=O)OCC(COP(=O)(O)OCC(O)C(O)C(O)CO)OC(=O)CCCCCCCC=CCCCCCC (mixture of isomers) [16:1 DPPX, sn-1-palmitoleoyl, sn-2-palmitoleoyl sn-3 glycerol phosphoxylitol]	markedly inhibited	–	–	+ (cutoff being greater than a 50% reduction in cytokine secretion compared to activating TLR ligand alone)
CCCCCCCC/C=C\CCCCCCCC(=O)O[C@H](COC(=O)CCCCCCCCCCCCCCC)COP(=O)([O-])OCC[N+](C)(C)C [POPC, 1-palmitoyl-2-oleoyl-sn-glycero-3-phosphocholine, reference compound]	not affected	–	ineffective as an antiviral	–
CCCCCCCCC=CCCCCCCCCOCC(COP(=O)(O)OCC(O)C(O)C(O)CO)OCCCCCCCCC=CCCCCCCCC (mixture of isomers) [18:1 DEPX, sn-1-O-octadecenyl, sn-2-O-octadecenyl sn-3 glycerol phosphoxylitol]	markedly inhibited; also recorded: inhibit	–	inhibit infection and propagation of RSV	+ (cutoff being greater than a 50% reduction in cytokine secretion compared to activating TLR ligand alone)
CCCCCCCCCCCCCCCCCC(=O)OCC(COP(=O)(O)OCC(O)C(O)C(O)CO)OC(=O)CCCCCCCCCCCCCCCCC (stereo not drawn) [DSPX, sn-1-stearoyl, sn-2-stearoyl sn-3 glycerol phosphoxylitol]	–	–	moderate antiviral activity	–
CCCCCCCCCCCCCCCC(=O)OCC(COP(=O)(O)OCC(O)C(O)C(O)CO)OC(=O)CCCCCCCCCCCCCCC (stereo not drawn) [DPPX, sn-1-palmitoyl, sn-2-palmitoyl sn-3 glycerol phosphoxylitol]	–	–	moderate antiviral activity	–
CCCCCCCCCCCCCCOC[C@H](COP(=O)(O)OCC(O)C(O)C(O)CO)OCCCCCCCCCCCCCC (mixture of isomers) [14:0 DEPX, sn-1-O-myristyl, sn-2-O-myristyl sn-3 glycerol phosphoxylitol]	markedly inhibited	–	ineffective as an antiviral; also recorded: ineffective at preventing RSV infection; also recorded: did not inhibit plaque formation	+ (cutoff being greater than a 50% reduction in cytokine secretion compared to activating TLR ligand alone)
CCCCCC=CCC=CCCCCCCCC(=O)OCC(COP(=O)(O)OCC(O)C(O)C(O)CO)OC(=O)CCCCCCCC=CCC=CCCCCC (mixture of isomers) [18:2 DLPX, sn-1-linoleoyl, sn-2-linoleoyl sn-3 glycerol phosphoxylitol]	markedly inhibited	–	–	+ (cutoff being greater than a 50% reduction in cytokine secretion compared to activating TLR ligand alone)
CCCCCCCC/C=C\CCCCCCCC(=O)O[C@H](COC(=O)CCCCCCCCCCCCCCC)COP(=O)(O)OCC(O)C(O)C(O)CO (stereo partly drawn) [POPX, sn-1-palmitoyl, sn-2-oleoyly sn-3 glycerol phosphoxylitol]	–	–	–	+ (cutoff being greater than a 50% reduction in cytokine secretion compared to activating TLR ligand alone)
CCCCCCCCC=CCCCCCCCC(=O)OCC(COP(=O)(O)OCC(O)C(O)C(O)CO)OC(=O)CCCCCCCC=CCCCCCCCC (mixture of isomers) [DOPX, sn-1-oleoyl, sn-2-oleoyl sn-3 glycerol phosphoxylitol]	markedly inhibited; also recorded: inhibit	–	inhibit infection and propagation of RSV	+ (cutoff being greater than a 50% reduction in cytokine secretion compared to activating TLR ligand alone)
